Columns and labels:
ZIKV NS5 MTase = target: T1, ZIKV NS5 MTase (Zika virus, UniProt A0A024B7W1); assay: ZIKV NS5 MTase radioactive filter-binding assay (2′-O-MTase activity); type: biochemical; conditions: at least two experiments; for IC50: read-out: IC50 (half-maximal inhibitory enzymatic concentration)
T1 construct: KJ776791.2, aa 4–278; His6 (N); made in house; host or cells: Escherichia coli T7 Express Iq
Protocol: Selected compounds were evaluated in enzymatic inhibition assays against both ZIKV and DENV 2′-O-MTase activity (For details, see Figure S3 in Supplementary Materials). The screening of compounds at a concentration of 50 µM highlighted a higher inhibitory activity against ZIKV MTase. We thus focused our efforts on ZIKV and determined the IC50 values against ZIKV MTase.
Expression and purification of ZIKV NS5 MTase: The coding sequence of the ZIKV NS5 MTase domain (strain H/PF/2013, GenBank accession no. KJ776791.2, aa 4–278) was synthesized by Genscript and cloned into a pQE30 vector (Qiagen, Hilden, Germany) with an N-terminal His6 tag. The protein was expressed and purified following the procedures described in Coutard et al..
Briefly, after expression in Escherichia coli T7 Express Iq (New England BioLabs) in Terrific Broth at 17 °C overnight, bacterial pellets were resuspended in lysis buffer (50 mM Tris-HCl [pH 8], 300 mM NaCl, 5% glycerol, 0.1% Triton, 10 μg/mL DNase I, 2 tablets of EDTA-free antiprotease cocktail [Roche] and 0.25 mg/mL lysozyme). Following cell lysis and clarification, the protein was purified by affinity on immobilized metal affinity chromatography (IMAC, His prep column [GE Healthcare]), followed by size exclusion chromatography (Superdex S75 HR 16/20 column [GE Healthcare]). The NS5-MTase was concentrated and stored at −20 °C after adding glycerol to a final concentration of 40%.
Filter-binding assay: The transfer of tritiated methyl from ^[3H]SAM onto RNA substrate was monitored by a filter-binding assay (FBA), performed according to the method described previously. FBA was carried out in a reaction mixture [40 mM Tris-HCl (pH 8.0), 1 mM DTT, 2 μM SAM, and 0.1 μM 3H-SAM (Perkin Elmer, Shelton, CT, USA)] in the presence of 0.7 μM synthetic ^7mGpppAC4 and ZIKV NS5 MTase (500 nM). The enzyme was first mixed with an increasing concentration of inhibitors, previously suspended in dimethyl sulfoxide (DMSO), before the addition of RNA substrate and SAM, and then incubated at 30 °C. The final DMSO concentration in reactions was 5%. Reaction mixtures were stopped after 30 min incubation by their 10-fold dilution in ice-cold water. Samples were transferred to diethylaminoethyl (DEAE) filtermat (Perkin Elmer, Shelton, CT, USA) using a Filtermat Harvester (Packard Instruments, Meriden, CT, USA). The RNA-retaining mats were washed twice with 10 mM ammonium formate pH 8.0, twice with water, and once with ethanol before drying. They were soaked with scintillation fluid (Perkin Elmer, Shelton, CT, USA), and 3H-methyl transfer to the RNA substrates was determined using a Wallac MicroBeta TriLux Liquid Scintillation Counter (Perkin Elmer, Shelton, CT, USA). For IC50 measurements, values were normalized and fitted with Prism (GraphPad software version 10.1.1) using the following equation: Y = 100/(1 + ((X/IC50) ^ Hillslope)).

ZIKV = ZIKV inhibitory viral plaque reduction assay in Vero E6 cells; type: cell-based, Zika virus; conditions: for IC50: Zika virus, Vero C1008, read-out: IC50 ± SD (half-maximal inhibitory concentration, ZIKV plaque reduction); for SI (Selectivity Index, ratio between CC50 and IC50): VERO E6 cells
[1] = Cytotoxicity assay (MTT) on Vero E6 cells; type: cell-based; conditions: African green monkey; VERO E6 cells, MTT, 3 days; read-out: CC50 ± SD (half-maximal cytotoxic concentration)
Protocol: Compounds characterized by the best anti-enzymatic activity were tested against ZIKV in cellular assays. VERO E6 cells were infected with ZIKV at a multiplicity of infection (M.O.I.) of 0.1, and their activities were evaluated by a plaque reduction assay three days post-infection. Ribavirin was used as a reference compound. As reported in Table 2, compound 1, identified in the first screening, was unable to inhibit viral replication up to a 100 μM concentration. […] The cytotoxicity of the series was determined on the same cell line. […] Their selectivity indexes were calculated as the ratio between CC50 and IC50 values; the results highlight their promising safety profile.
Monolayers of 2.5 × 10^4 Vero E6 cells per well were grown in flat-bottom 96-well culture plates and allowed to adhere overnight. Then, when the cell layers were confluent, the medium was removed, the wells were washed twice with PBS, treated with 100 µL of DMEM with 10 µL DMSO alone (cell positive control) or with various concentrations of anti-NS5 inhibitory compounds under study (compound final concentrations of 100, 10, 1, 0.1, and 0.01 μM), and incubated for 3 days at 37 °C in a CO2. After treatment, an MTT (3-(4,5-dimethylthiazol-2-yl)-2,5-diphenyltetrazolium bromide) kit (Roche, Milan, Italy) was used according to the supplier’s instructions, and the absorbance of each well was determined using a microplate spectrophotometer at a wavelength of 570 nm. Cytotoxicity was calculated by dividing the average optical density of treated samples by the average of DMSO-treated samples (cell positive control).

DENV MTase = DENV MTase enzymatic inhibition assay; type: biochemical, Dengue virus; conditions: read-out: IC50 against DENV MTase
From the text: Firstly, a pharmacophoric model was developed taking into consideration the most populated interactions (Figure 1C). The pharmacophore was used to perform a first screening, choosing molecules matching the pharmacophore features representing the interactions of the SAM adenine group and at least one of the two groups of features representing the interaction of SAM methionine moieties, with the aim of identifying compounds able to form interactions within both the adenine and the methionine subpockets of the SAM-binding site. The obtained results were then subjected to docking analysis using Glide XP, Glide SP, and GOLD (using the GoldScore fitness function). At the end of each docking procedure, a post-docking filter was applied to check whether the desired pharmacophoric interactions were maintained in the predicted binding modes of the docked compounds. Only the ligands for which a common binding mode matching the desired pharmacophore features was predicted by all the docking software were retained and then subjected to clustering and visual inspection. […]
Selected compounds were evaluated in enzymatic inhibition assays against both ZIKV and DENV 2′-O-MTase activity (For details, see Figure S3 in Supplementary Materials). […] We thus focused our efforts on ZIKV and determined the IC50 values against ZIKV MTase.

[2] = Stability test in human plasma; type: in vitro ADME; conditions: pH 7.4, 37 °C, up to 24 h, read-out: Plasma Stab. (T1/2, h ± SD) (converted)
Protocol: Finally, compounds were incubated in human plasma at 37 °C for 24 h. […] Taken together, stability studies confirmed that the series is suitable for further development.
(§1) For the ADME property determination, an Agilent 1260 Infinity HPLC-DAD interfaced with an Agilent MSD 6130 (Agilent Technologies, Palo Alto, CA, USA) was used. Chromatographic conditions were optimized using a Phenomenex Kinetex C18-100 Å column (150 × 4.6 mm) with 5 µm particle size and gradient elution with a binary solution (eluent A: H2O; eluent B: ACN; both eluents were acidified with formic acid 0.1% v/v) at room temperature. The LC analyses started with 5% of B (from t = 0 to t = 1 min), then B was increased to 95% (from t = 1 to t = 10 min) and then kept at 95% (from t = 10 to t = 19 min) and finally returned to initial conditions in 1.0 min. The flow rate was 0.6 mL/min and the injection volume was 10 µL.
A stock solution of the target compound in DMSO (2 mM) was incubated in a test tube with pooled human plasma (55.7 mg protein/mL) and HEPES buffer (25 mM, 140 mM NaCl pH 7.4) up to a final volume of 1.0 mL. The mixture was incubated at 37 °C, and at set time points (0.0, 0.5, 1, 4, 8, 24 h), samples of 50 µL were taken, mixed with 400 µL of ACN to stop the reaction of plasmatic esterases, and centrifuged at 5000 rpm for 15 min. The supernatant was removed and analyzed using the LC-UV/MS method previously described. The half-life (t½) was calculated according to the following equation: t½=ln 2/k where k represents the substrate elimination constant. For each compound, the determination was performed in three independent experiments.

[3] = Metabolic stability in human liver microsomes; type: in vitro ADME; conditions: 1 h, 37 °C, three experiments
Protocol: The metabolic stability was investigated by incubating selected compounds with human liver microsomes (HLMs) for 1 h at 37 °C. The percentage of non-metabolized compounds and metabolites was analyzed by HPLC-UV-MS. […] HPLC analysis confirmed the presence of the oxidated metabolites in small percentages.
as §1
The test was performed as previously reported with minor modifications. Each compound was dissolved in DMSO and phosphate buffer (0.025 M, pH 7.4), and human liver microsomes (0.2 mg/mL) and a NADPH-regenerating system in MgCl2 48 mM were added to a final volume of 500 µL. This solution was incubated for 1 h at 37 °C and then the reaction was stopped and quenched using 1 mL of ACN. The reaction mixtures were then centrifuged (4000 rpm for 10 min) and the supernatant was taken, dried under nitrogen flow, and then resuspended in 100 µL of methanol. The parent drug and metabolites were subsequently determined using the chromatographic conditions described above. The percentage of non-metabolized compounds was calculated by comparison with reference solutions. The determination of metabolic stability for each compound was performed in three independent experiments.

T1 sequence (A0A024B7W1 2524-2798): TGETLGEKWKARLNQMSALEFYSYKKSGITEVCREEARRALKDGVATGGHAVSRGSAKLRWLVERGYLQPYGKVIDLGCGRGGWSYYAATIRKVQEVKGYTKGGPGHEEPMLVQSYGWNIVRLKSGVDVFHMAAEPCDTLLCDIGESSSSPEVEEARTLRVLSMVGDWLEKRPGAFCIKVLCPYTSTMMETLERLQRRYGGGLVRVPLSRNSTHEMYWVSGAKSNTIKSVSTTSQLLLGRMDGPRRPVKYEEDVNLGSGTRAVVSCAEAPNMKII

| Compound | IC50 (ZIKV NS5 MTase) | IC50 (ZIKV) | CC50 at 3 days [1] | further results |
| --- | --- | --- | --- | --- |
| O=C(Nc1ccc2c(c1)C(=O)NC2=O)c1cc2cc([N+](=O)[O-])ccc2s1 [Compound 1] | 53 µM | > 100 µM | > 100 µM | IC50 (DENV MTase): 69 µM |
| O=C(Nc1ccc2c(c1)C(=O)NC2)c1cc2cc([N+](=O)[O-])ccc2s1 [Compound 2] | 20 µM |  |  |  |
| CN1C(=O)c2ccc(NC(=O)c3cc4cc([N+](=O)[O-])ccc4s3)cc2C1=O [Compound 3] | 16.6 µM | 28.6 ± 1.3 µM | > 100 µM | SI (Selectivity Index, ratio between CC50 and IC50) (ZIKV): >3.49 |
| NS(=O)(=O)c1cccc(NC(=O)c2cc3cc([N+](=O)[O-])ccc3s2)c1 [Compound 4] | 34 µM |  |  |  |
| NC(=O)c1ccc(NC(=O)c2cc3cc([N+](=O)[O-])ccc3s2)cc1 [Compound 5] | 37 µM |  |  |  |
| O=C(O)c1ccc(NC(=O)c2cc3cc([N+](=O)[O-])ccc3s2)cc1 [Compound 6] | 50 µM |  |  |  |
| CN1C(=O)c2ccc(NC(=O)c3cc4cc([N+](=O)[O-])ccc4o3)cc2C1=O [Compound 8] | 22.6 µM | 1.9 ± 0.3 µM | > 100 µM | half-life [2]: 7.31 ± 0.17 h; SI (Selectivity Index, ratio between CC50 and IC50) (ZIKV): >52.63; HLM Stab.% ± SD (percentage of non-metabolized compound) [3]: 96.93 ± 0.57% |

Second part, led by results:

| IC50 (ZIKV NS5 MTase) | Compound | IC50 (ZIKV) | CC50 at 3 days [1] | further results |
| --- | --- | --- | --- | --- |
| 57 µM | O=C(Nc1ccccc1)c1cc2cc([N+](=O)[O-])ccc2s1 [Compound 7] |  |  |  |
| > 100 µM | CN1C(=O)c2ccc(NC(=O)c3cc4ccccc4o3)cc2C1=O [Compound 9] |  |  | IC50 (half-maximal inhibitory enzymatic concentration) (ZIKV NS5 MTase): completely inactive |
| 36 µM | NC(=O)c1ccc(NC(=O)c2cc3ccccc3s2)cc1 [Compound 10] |  |  |  |
